Experiments:
pigweed [1] = assay: Test A pre-/postemergence herbicide test; format: in vivo, Amaranthus retroflexus
How it was run: (§1)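 Greenhouse pot test with pre- and postemergence application of surfactant-containing solvent formulations. Postemergence plants were 2–10 cm, one- to two-leaf stage. Response scored visually after ~10 days, 0 (no effect) to 100 (complete control).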

wheat = assay: Test A pre-/postemergence herbicide test; format: in vivo, Triticum aestivum
How it was run: as §1

galium = assay: Test C pre-/postemergence herbicide test; format: in vivo, Galium aparine
From the text: (§2) Seeds of plant species selected from blackgrass (Alopecurus myosuroides), ryegrass, Italian (Italian ryegrass, Lolium multiflorum), wheat (winter wheat, Triticum aestivum), galium (catchweed bedstraw, Galium aparine), corn (Zea mays), crabgrass, large (large crabgrass, Digitaria sanguinalis), foxtail, giant (giant foxtail, Setaria faberii), johnsongrass (Sorghum halepense), lambsquarters (Chenopodium album), morningglory (Ipomoea coccinea), nutsedge, yellow (yellow nutsedge, Cyperus esculentus), pigweed (Amaranthus retroflexus), ragweed (common ragweed, Ambrosia elatior), soybean (Glycine max), barnyardgrass (Echinochloa crus-galli), oilseed rape (Brassica napus), waterhemp (common waterhemp, Amaranthus rudis), kochia (Kochia scoparia), oat, wild (wild oat, Avena fatua), surinam grass (Brachiaria decumbens), foxtail, green (green foxtail, Setaria viridis), goosegrass (Eleusine indica), bromegrass, downy (downy bromegrass, Bromus tectorum), nightshade (eastern black nightshade, Solanum ptycanthum), cocklebur (common cocklebur, Xanthium strumarium), cupgrass, woolly (woolly cupgrass, Eriochloa villosa), bermudagrass (Cynodon dactylon), sunflower, (common oilseed sunflower, Helianthus annuus), Russian thistle (Salsola kali) and velvetleaf (Abutilon theophrasti) were planted into a blend of loam soil and sand and treated preemergence with test chemicals formulated in a non-phytotoxic solvent mixture which included a surfactant. At the same time, plants selected from these crop and weed species and also barley (winter barley, Hordeum vulgare), […]), chickweed (common chickweed, Stellaria media), deadnettle (henbit deadnettle, Lamium amplexicaule), and canarygrass (littleseed canarygrass, Phalaris minor) were planted in pots containing Redi-Earth® planting medium (Scotts Company, 14111 Scottslawn Road, Marysville, Ohio 43041) comprising spaghnum peat moss, vermiculite, wetting agent and starter nutrients and treated with postemergence applications of test chemicals formulated in the same manner. Plants ranged in height from 2 to 18 cm (1- to 4-leaf stage) for postemergence treatments. Treated plants and controls were maintained in a greenhouse for 13 to 15 days, after which time all species were compared to controls and visually evaluated. Plant response ratings, summarized in Table C, are based on a scale of 0 to 100 where 0 is no effect and 100 is complete control. A dash (-) response means no test result.

corn = assay: Test C pre-/postemergence herbicide test; format: in vivo, Zea mays
From the text: as §2

foxtail, giant = assay: Test C pre-/postemergence herbicide test; format: in vivo, Setaria faberii
From the text: as §2

johnsongrass = assay: Test C pre-/postemergence herbicide test; format: in vivo, Sorghum halepense
From the text: as §2

lambsquarters = assay: Test C pre-/postemergence herbicide test; format: in vivo, Chenopodium album
From the text: as §2

nutsedge, yellow = assay: Test C pre-/postemergence herbicide test; format: in vivo, Cyperus esculentus
From the text: as §2

pigweed [2] = assay: Test C pre-/postemergence herbicide test; format: in vivo, Amaranthus retroflexus
From the text: as §2

velvetleaf = assay: Test C pre-/postemergence herbicide test; format: in vivo, Abutilon theophrasti
From the text: as §2

[3] = Postemergence, 125 g ai/ha, 0 to 100 scale, 0 no effect, 100 complete control
[4] = Postemergence, 500 g ai/ha, 0 to 100 scale (0 no effect, 100 complete control)
[5] = Preemergence, 125 g ai/ha, visual rating on 0 to 100 scale (0 no effect, 100 complete control)
[6] = preemergence, 500 g ai/ha, 0 to 100 scale
[7] = Preemergence, 31 g ai/ha, scale 0 to 100 (0 no effect, 100 complete control)
[8] = Preemergence, 62 g ai/ha, scale 0 to 100
[9] = Preemergence, 125 g ai/ha, scale 0 to 100 (0 no effect, 100 complete control)
[10] = Preemergence, 250 g ai/ha, scale 0 to 100 (0 no effect, 100 complete control)
[11] = Postemergence, 1000 g ai/ha, 0 to 100 scale (0 no effect, 100 complete control)
[12] = Preemergence, 1000 g ai/ha, visual rating on 0 to 100 scale (0 no effect, 100 complete control), approx. 10 days
[13] = Postemergence, 31 g ai/ha, scale 0 (no effect) to 100 (complete control)
[14] = Postemergence, 62 g ai/ha, scale 0 to 100 (0 no effect, 100 complete control)
[15] = Postemergence, 125 g ai/ha, scale 0 to 100 (0 no effect, 100 complete control)
[16] = Postemergence, 250 g ai/ha, scale 0 to 100 (0 no effect, 100 complete control)

O=C1NCC(c2ccc(F)c(F)c2)C1C(=O)Nc1cccc(F)c1 (racemic) [Compound 12]
Plant response rating, Pigweed (pigweed [1]; [3]): 0 | Plant response rating, Pigweed (pigweed [1]; [4]): 0 | Pigweed plant response rating (pigweed [1]; [5]): 0 | Plant response rating, Pigweed (pigweed [1]; [6]): 0 | Plant response rating, Wheat (wheat; [3]): 0 | Plant response rating, Wheat (wheat; [4]): 20 | Wheat plant response rating (wheat; [5]): 0 | Plant response rating, Wheat (wheat; [6]): 20

O=C1NCC(c2cccc(Br)c2)C1C(=O)Nc1cccc(F)c1F (stereo not shown) [Compound 64]
Plant response rating, Pigweed (pigweed [1]; [3]): 0 | Plant response rating, Pigweed (pigweed [1]; [4]): 30 | Pigweed plant response rating (pigweed [1]; [5]): 0 | Plant response rating, Pigweed (pigweed [1]; [6]): 0 | Plant response rating, Wheat (wheat; [3]): 0 | Plant response rating, Wheat (wheat; [4]): 40 | Wheat plant response rating (wheat; [5]): 0 | Plant response rating, Wheat (wheat; [6]): 0 | Galium plant response rating (galium; [7]): 0 | Plant response rating, Galium (galium; [8]): 0 | Plant response rating, Galium (galium; [9]): 0 | Plant response rating, Galium (galium; [10]): 0 | Corn plant response rating (corn; [7]): 0 | Plant response rating, Corn (corn; [8]): 0 | Plant response rating, Corn (corn; [9]): 55 | Plant response rating, Corn (corn; [10]): 60 | Foxtail, Giant plant response rating (foxtail, giant; [7]): 50 | Plant response rating, Foxtail, Giant (foxtail, giant; [8]): 80 | Plant response rating, Foxtail, Giant (foxtail, giant; [9]): 90 | Plant response rating, Foxtail, Giant (foxtail, giant; [10]): 98 | Plant response rating, Johnsongrass (johnsongrass; [8]): 40 | Plant response rating, Johnsongrass (johnsongrass; [9]): 75 | Plant response rating, Lambsquarters (lambsquarters; [8]): 10 | Plant response rating, Lambsquarters (lambsquarters; [9]): 30 | Plant response rating, Nutsedge, Yellow (nutsedge, yellow; [8]): 20 | Plant response rating, Nutsedge, Yellow (nutsedge, yellow; [9]): 20 | Plant response rating, Pigweed (pigweed [2]; [8]): 0 | Plant response rating, Pigweed (pigweed [2]; [9]): 30 | Plant response rating, Velvetleaf (velvetleaf; [8]): 10 | Plant response rating, Velvetleaf (velvetleaf; [9]): 10

Cc1ccccc1NC(=O)C1C(=O)NCC1c1cc(F)c(F)c(F)c1 (racemic) [Compound 35]
Plant response rating, Pigweed (pigweed [1]; [11]): 0 | Plant response rating, Pigweed (pigweed [1]; [12]): 0 | Plant response rating, Wheat (wheat; [11]): 40 | Plant response rating, Wheat (wheat; [12]): 0 | Galium plant response rating (galium; [7]): 0 | Plant response rating, Galium (galium; [8]): 0 | Plant response rating, Galium (galium; [9]): 5 | Plant response rating, Galium (galium; [10]): 30 | Corn plant response rating (corn; [7]): 0 | Plant response rating, Corn (corn; [8]): 0 | Plant response rating, Corn (corn; [9]): 5 | Plant response rating, Corn (corn; [10]): 5 | Foxtail, Giant plant response rating (foxtail, giant; [7]): 80 | Plant response rating, Foxtail, Giant (foxtail, giant; [8]): 90 | Plant response rating, Foxtail, Giant (foxtail, giant; [9]): 98 | Plant response rating, Foxtail, Giant (foxtail, giant; [10]): 98 | Plant response rating, Johnsongrass (johnsongrass; [8]): 0 | Plant response rating, Johnsongrass (johnsongrass; [9]): 0 | Plant response rating, Lambsquarters (lambsquarters; [8]): 0 | Plant response rating, Lambsquarters (lambsquarters; [9]): 0 | Plant response rating, Nutsedge, Yellow (nutsedge, yellow; [8]): 0 | Plant response rating, Nutsedge, Yellow (nutsedge, yellow; [9]): 0 | Plant response rating, Pigweed (pigweed [2]; [8]): 0 | Plant response rating, Pigweed (pigweed [2]; [9]): 0 | Plant response rating, Velvetleaf (velvetleaf; [8]): 20 | Plant response rating, Velvetleaf (velvetleaf; [9]): 20

O=C1NCC(c2cc(F)c(F)c(F)c2)C1C(=O)Nc1ccccc1F (racemic) [Compound 34]
Plant response rating, Pigweed (pigweed [1]; [11]): 0 | Plant response rating, Pigweed (pigweed [1]; [12]): 0 | Plant response rating, Wheat (wheat; [11]): 70 | Plant response rating, Wheat (wheat; [12]): 60 | Plant response rating, Galium (galium; [13]): 0 | Plant response rating, Galium (galium; [14]): 0 | Plant response rating, Galium (galium; [15]): 0 | Plant response rating, Galium (galium; [16]): 10 | Galium plant response rating (galium; [7]): 0 | Plant response rating, Galium (galium; [8]): 0 | Plant response rating, Galium (galium; [9]): 5 | Plant response rating, Galium (galium; [10]): 60 | Plant response rating, Corn (corn; [13]): 0 | Plant response rating, Corn (corn; [14]): 0 | Plant response rating, Corn (corn; [15]): 0 | Plant response rating, Corn (corn; [16]): 0 | Corn plant response rating (corn; [7]): 0 | Plant response rating, Corn (corn; [8]): 0 | Plant response rating, Corn (corn; [9]): 0 | Plant response rating, Corn (corn; [10]): 10 | Plant response rating, Foxtail, Giant (foxtail, giant; [13]): 0 | Plant response rating, Foxtail, Giant (foxtail, giant; [14]): 5 | Plant response rating, Foxtail, Giant (foxtail, giant; [15]): 5 | Plant response rating, Foxtail, Giant (foxtail, giant; [16]): 35 | Foxtail, Giant plant response rating (foxtail, giant; [7]): 90 | Plant response rating, Foxtail, Giant (foxtail, giant; [8]): 95 | Plant response rating, Foxtail, Giant (foxtail, giant; [9]): 98 | Plant response rating, Foxtail, Giant (foxtail, giant; [10]): 98 | Plant response rating, Johnsongrass (johnsongrass; [13]): 0 | Plant response rating, Johnsongrass (johnsongrass; [14]): 0 | Plant response rating, Johnsongrass (johnsongrass; [15]): 0 | Plant response rating, Johnsongrass (johnsongrass; [16]): 0 | Plant response rating, Johnsongrass (johnsongrass; [8]): 10 | Plant response rating, Johnsongrass (johnsongrass; [9]): 10 | Plant response rating, Lambsquarters (lambsquarters; [13]): 0 | Plant response rating, Lambsquarters (lambsquarters; [14]): 0 | Plant response rating, Lambsquarters (lambsquarters; [15]): 10 | Plant response rating, Lambsquarters (lambsquarters; [16]): 55 | Plant response rating, Lambsquarters (lambsquarters; [8]): 40 | Plant response rating, Lambsquarters (lambsquarters; [9]): 80 | Plant response rating, Nutsedge, Yellow (nutsedge, yellow; [13]): 5 | Plant response rating, Nutsedge, Yellow (nutsedge, yellow; [14]): 5 | Plant response rating, Nutsedge, Yellow (nutsedge, yellow; [15]): 10 | Plant response rating, Nutsedge, Yellow (nutsedge, yellow; [16]): 10 | Plant response rating, Nutsedge, Yellow (nutsedge, yellow; [8]): 0 | Plant response rating, Nutsedge, Yellow (nutsedge, yellow; [9]): 0 | Plant response rating, Pigweed (pigweed [2]; [13]): 0 | Plant response rating, Pigweed (pigweed [2]; [14]): 0 | Plant response rating, Pigweed (pigweed [2]; [15]): 0 | Plant response rating, Pigweed (pigweed [2]; [16]): 10 | Plant response rating, Pigweed (pigweed [2]; [8]): 0 | Plant response rating, Pigweed (pigweed [2]; [9]): 0 | Plant response rating, Velvetleaf (velvetleaf; [13]): 5 | Plant response rating, Velvetleaf (velvetleaf; [14]): 5 | Plant response rating, Velvetleaf (velvetleaf; [15]): 5 | Plant response rating, Velvetleaf (velvetleaf; [16]): 5 | Plant response rating, Velvetleaf (velvetleaf; [8]): 0 | Plant response rating, Velvetleaf (velvetleaf; [9]): 0

O=C1NCC(c2ccc(F)cc2)C1C(=O)Nc1ccccc1F (racemic) [Compound 16]
Plant response rating, Pigweed (pigweed [1]; [3]): 0 | Plant response rating, Pigweed (pigweed [1]; [4]): 0 | Pigweed plant response rating (pigweed [1]; [5]): 0 | Plant response rating, Pigweed (pigweed [1]; [6]): 0 | Plant response rating, Wheat (wheat; [3]): 20 | Plant response rating, Wheat (wheat; [4]): 50 | Wheat plant response rating (wheat; [5]): 0 | Plant response rating, Wheat (wheat; [6]): 0 | Galium plant response rating (galium; [7]): 0 | Plant response rating, Galium (galium; [8]): 0 | Corn plant response rating (corn; [7]): 0 | Plant response rating, Corn (corn; [8]): 0 | Plant response rating, Corn (corn; [9]): 5 | Plant response rating, Corn (corn; [10]): 10 | Foxtail, Giant plant response rating (foxtail, giant; [7]): 0 | Plant response rating, Foxtail, Giant (foxtail, giant; [8]): 70 | Plant response rating, Foxtail, Giant (foxtail, giant; [9]): 90 | Plant response rating, Foxtail, Giant (foxtail, giant; [10]): 95 | Plant response rating, Johnsongrass (johnsongrass; [8]): 0 | Plant response rating, Johnsongrass (johnsongrass; [9]): 0 | Plant response rating, Nutsedge, Yellow (nutsedge, yellow; [8]): 0 | Plant response rating, Nutsedge, Yellow (nutsedge, yellow; [9]): 0 | Plant response rating, Pigweed (pigweed [2]; [8]): 0 | Plant response rating, Pigweed (pigweed [2]; [9]): 0 | Plant response rating, Velvetleaf (velvetleaf; [8]): 0 | Plant response rating, Velvetleaf (velvetleaf; [9]): 0

O=C1NCC(c2cccc(C(F)(F)F)c2)C1C(=O)Nc1ccccc1F (racemic) [Compound 3]
Plant response rating, Pigweed (pigweed [1]; [4]): 50 | Pigweed plant response rating (pigweed [1]; [5]): 0 | Plant response rating, Pigweed (pigweed [1]; [6]): 0 | Plant response rating, Wheat (wheat; [4]): 50 | Wheat plant response rating (wheat; [5]): 40 | Plant response rating, Wheat (wheat; [6]): 60

Reference: patent US10294202B2, “Pyrrolidinones as herbicides” (FMC Corporation, priority 2013, dated 2019)
